Assay results reported in BindingDB's records for patent US20250059174 (Enanta Pharmaceuticals, 2025).
pIC50: −log10 of the molar value.

Biological target: Mast/stem cell growth factor receptor Kit (Homo sapiens, UniProt P10721)
Assay: c-KIT Kinase Assay
Protocol: Kinase Reaction: The kinase assay was based on the recommended protocol by c-KIT Kinase Enzyme System from Promega. Recombinant human c-KIT kinase in 3 μL of assay buffer (40 mM Tris pH 7.5, 20 mM MgCl2, 0.1 mg/mL BSA and 50 μM DTT) was added to the test or high control wells and 3 μL of assay buffer was added to the low control wells. The microplate was centrifuged at 800 rotations per minute (rpm) for 60 s and incubated at room temperature (RT) for 30 min. Next, 2 μL of buffered ATP and polyEY substrate solution was added to all wells. The microplate was centrifuged at 800 rpm for 60 s and incubated at RT for 2 h. […] ADP detection with ADP-Glo™ Kinase Assay: After the kinase reaction incubation, 5 μL of ADP-Glo™ reagent was added to all wells. The microplate was centrifuged at 800 rpm for 60 s and incubated at RT for 40 min. Ten microliter (10 μL) of Kinase Detection Reagent (Luciferin-Luciferase system) was then added to all wells. The microplate was centrifuged at 800 rpm for 60 s and incubated at RT for 60 min. Kinase activity was measured as increase in luminescence at RT in an Envision plate reader equipped with 560 nm filters and operating in endpoint mode.

Sequence of Mast/stem cell growth factor receptor Kit (P10721 whole entry): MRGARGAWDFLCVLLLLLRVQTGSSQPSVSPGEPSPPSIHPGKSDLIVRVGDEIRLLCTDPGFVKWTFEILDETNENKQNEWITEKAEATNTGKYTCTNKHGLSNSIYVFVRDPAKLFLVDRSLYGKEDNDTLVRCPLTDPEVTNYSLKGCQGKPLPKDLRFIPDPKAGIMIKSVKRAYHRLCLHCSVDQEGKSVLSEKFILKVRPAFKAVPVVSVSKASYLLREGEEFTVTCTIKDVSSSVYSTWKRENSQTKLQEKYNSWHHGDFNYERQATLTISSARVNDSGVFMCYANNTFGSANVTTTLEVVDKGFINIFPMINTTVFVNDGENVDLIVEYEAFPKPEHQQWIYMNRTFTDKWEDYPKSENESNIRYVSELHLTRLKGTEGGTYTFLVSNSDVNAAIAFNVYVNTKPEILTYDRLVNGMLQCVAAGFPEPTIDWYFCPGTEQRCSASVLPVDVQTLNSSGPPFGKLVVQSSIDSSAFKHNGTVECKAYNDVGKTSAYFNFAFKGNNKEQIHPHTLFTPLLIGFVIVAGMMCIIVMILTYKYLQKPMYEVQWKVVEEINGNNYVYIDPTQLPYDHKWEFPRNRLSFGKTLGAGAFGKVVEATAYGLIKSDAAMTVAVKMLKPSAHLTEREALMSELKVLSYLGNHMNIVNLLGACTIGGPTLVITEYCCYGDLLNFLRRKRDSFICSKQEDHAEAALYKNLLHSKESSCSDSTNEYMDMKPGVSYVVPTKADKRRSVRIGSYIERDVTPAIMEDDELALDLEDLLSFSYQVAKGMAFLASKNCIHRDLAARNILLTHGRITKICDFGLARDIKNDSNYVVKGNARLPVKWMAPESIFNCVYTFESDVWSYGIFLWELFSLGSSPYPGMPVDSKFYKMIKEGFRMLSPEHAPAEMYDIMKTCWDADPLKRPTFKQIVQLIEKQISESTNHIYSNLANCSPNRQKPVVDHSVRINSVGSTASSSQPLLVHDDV

| pIC50 | Structure (SMILES) |
| --- | --- |
| > 7.00 | Cc1ccc(-c2noc(C3C[C@@H]3F)n2)cc1NC(=O)c1cnn2ccc(-c3cnn(C(F)F)c3)cc12 (stereo partly drawn) [US20250059174, Example 2a] |
| < 6.00 | Cc1ccc(-c2noc([C@H]3C[C@@H]3F)n2)cc1NC(=O)c1cnc(N2CC(C(=O)O)C2)s1 [US20250059174, Example 98-4] |
| > 7.00 | Cc1ccc(-c2noc(C3C[C@@H]3F)n2)cc1NC(=O)c1cnn2ccc(N3C[C@H](CS(C)(=O)=O)[C@@H]3C)cc12 (stereo partly drawn) [US20250059174, Example 172] |
